According to patent publication US8227408B2, “Leptin as an anti-amyloidogenic biologic and methods for delaying the onset and reducing Alzheimer's disease-like pathology” (Neurotez, Inc., priority 2005, dated 2012):

B1: Ciliary neurotrophic factor: member of the gp130 family of cytokines regulating survival and differentiation of neurons (protein, UniProt P26441 1-200, looked up)
Ciliary neurotrophic factor: MAFTEHSPLTPHRRDLCSRSIWLARKIRSDLTALTESYVKHQGLNKNINLDSADGMPVASTDQWSELTEAERLQENLQAYRTFHVLLARLLEDQQVHFTPTEGDFHQAIHTLLLQVAAFAYQIEELMILLEYKIPRNEADGMPINVGDGGLFEKKLWGLKVLQELSQWTVRSIHDLRFISSHQTGIPARGSHYIANNKKM
B2: RAP: Receptor Associated Protein, antagonist of a number of lipoprotein receptors (protein)
chain: YSREKNQPKPSPKRESGEEFRMEKLNQLWEKAQRLHLPPVRLAELHADLKIQERDELAWKKLKLDGLDEDGEKEARLIRNLNVILAKYGLDGKKDARQVTSNSLSGTQEDGLDDPRLEKLWHKAKTSGKFSGEELDKLWREFLHHKEKVHEYNVLLETLSRTEEIHENVISPSDLSDIKGSVLHSRHTELKEKLRSINQGLDRLRRVSHQGYSTEAEFEEPRVIDLWDLAQSANLTDKELEAFREELKHFEAKIEKHNHYQKQLEIAHEKLRHAESVGDGERVSRSREKHALLEGRTKELGYTVKKHLQDLSGRISRARHNEL

What was measured:
[1] = test system: Neuro2a cells stably transfected with hyg-sa134 (SEAP-APP); assay: Aβ production by Neuro2a cells stably transfected with hyg-sa134 (total Aβ in media, sandwich ELISA); type: cell-based, mouse; details: for Aβ production / levels of Aβ in the media (in words): 2 or 5 h treatment; for Neuro2a/SEAP-APP Aβ(% control): total Aβ in conditioned media, concentration (TOFA 200 μM, cerulenin 200 μM, etomoxir 40 μM, peptide YY (3-36) 25 μM, CNTF 25 μM, leptin 400 ng/ml), mean ± SEM, 4 experiments, NS = non-significant; for Neuro2a/SEAP-APP Aβ(% control) / Aβ production (in words): 5 h
Procedure: (§1) Neuro2a (mouse neuroblastoma) stably transfected with hyg-sa134, a pcDNA3.1/Hygro plasmid (Invitrogen, CA) modified to express a fusion protein of secreted alkaline phosphatase (SEAP) and a fragment of APP consisting of the C-terminal 134 amino acids (“CAPP134”) (SEQ ID NO:10) were maintained in culture as described ([…]) in the presence of 400 μg/ml of hygromycin. SEQ ID NO: 11 is the DNA sequence of the entire hygsa134 vector, which was derived from the pcDNA3.1/Hygro vector by genetic manipulation to insert the DNA sequences for SEAP and CAPP134. The SEAP-CAPP cDNA insert from hyg-sa134 was also subcloned into an adenoviral vector using the Adeno Vator system (Qbiogene, Calif.). The DNA sequence for SEAP (corresponding to nucleotides 981-2441 of hyg-sa134) (SEQ ID NO: 9) is located 5′ to the DNA sequence (SEQ ID NO: 12) coding for CAPP134 (SEQ ID NO: 10).
(§2) SY5Y and hyg-sa134-Neuro2a cells were treated at 80% confluency (see below). Primary neural cultures from mouse embryos were allowed to grow for 6-12 days following plating and prior to viral infection and treatments.
About 5 μg/ml or about 10 μg/ml water-soluble cholesterol was added to cultures for 2 or 5 hours. Water soluble cholesterol (Sigma-Aldrich, MO) is a solution made of cholesterol balanced with cyclodextrin CDX (40 mg cholesterol per gr CDX). For comparison, cultures were treated with the equivalent amount of the resin alone, which leads to depletion of cholesterol in the cultures (Simons et al., Proc Natl Acad Sci USA. 95:6460-4 (1998)).
(§3) About 100 ng/ml or about 400 ng/ml leptin (Harbor-UCLA, CA), was added in cell culture medium for 2 or 5 h. Cells were approximately 80% confluent at the time of treatment. Peptide YY (3-36) (Phoenix Pharmaceuticals, Inc., CA), and CNTF (Sigma-Aldrich, Mo.) were added at about 25 μM or 150 μM for the same incubation periods. TOFA, etomoxir (Research Biochemicals International, MA) and cerulenin (Sigma-Aldrich, Mo.) were used as described below.
(§4) For the determination of Aβ peptide several methodologies also were used. SY5Y cells in culture were metabolically labeled with ^35S-[Met] as described (Figueiredo-Pereira et al. J Neurochem. 72:1417-22 (1999)), followed by immunoprecipitation, resolution of the immunoprecipitates on SDS-PAGE, autoradiography, and densitometric analysis of the autoradiogram. Neuro2a cells were stably transfected with hyg-sa134 (K. Sambamurti, S. Carolina Medical Center, SC) and Aβ40 (SEQ ID NO: 4) plus Aβ42 (SEQ ID NO: 5) plus Aβ43 (SEQ ID NO: 6) (Total Aβ) in the medium then was quantified by sandwich ELISAs developed with 4G8 and 6 ε10 monoclonal antibodies (Signet, Mass.) as described (Figueiredo-Pereira et al., J Neurochem. 72:1417-22 (1999)). Commercially available ELISA kits (KMI Diagnostics, MN) were used for the separate determination of Aβ40 (SEQ ID NO:4) and Aβ42/43 (SEQ ID NO:5/SEQ ID NO:6) in formic acid extracts of mice brains. Flotillin was detected using monoclonal anti-flotillin-1 antibodies (BD Biosciences, CA). Actin was detected using monoclonal anti-actin antibodies (Research Diagnostics, Inc, NJ).
Human (SYSY) or mouse neuroblastoma cell-lines (Neuro2a) commonly are used to study amyloid β metabolism in vitro. Neuro2a cells are stably transfected with hyg-sa134 (SEQ ID NO: 11), a plasmid driving the expression of a recombinant fusion protein containing the human C-terminal fragment of APP of about 134 amino acids, CAPP134 (SEQ ID NO: 10). Here, 5Y5Y or Neuro2a cultures were treated for 2 or 5 h with about 100 ng/ml or about 400 ng/ml leptin (FIG. 4a, 4b). Similarly, primary neurons from embryonic rat brain, infected with an adenovirus to direct the expression of CAPP134 (SEQ ID NO:10) also were treated according to the same regimen. […]

SY5Y cells [2] = assay: Aβ production by SY5Y cells; type: cell-based, human; details: total Aβ in conditioned media, 5 h; concentration (TOFA 200 μM, cerulenin 200 μM, etomoxir 40 μM, peptide YY (3-36) 25 μM, CNTF 25 μM, leptin 400 ng/ml); mean ± SEM; NS = non-significant
Text: (§5) Cell cultures, Treatments, Antibodies and Immunoassays. SY5Y cells (human neuroblastoma) were maintained in culture as described (Johnsingh et al., FEBS Lett. 465:53-8 (2000)). Primary neural cultures were obtained from ε16 rat embryonic cortex, as described (Shimoda et al., 1992. Brain Res. 586:319-31 (1992)). These were either grown as mixed cultures (Johnsingh et al., FEBS Lett. 465:53-8 (2000)) or grown under conditions that favor the isolation and proliferation of astrocytes (Takeshima et al., J Neurosci. 14:4769-79 (1994)).
as §2, §3, §4
(§6) Human (SYSY) or mouse neuroblastoma cell-lines (Neuro2a) commonly are used to study amyloid β metabolism in vitro. Neuro2a cells are stably transfected with hyg-sa134 (SEQ ID NO: 11), a plasmid driving the expression of a recombinant fusion protein containing the human C-terminal fragment of APP of about 134 amino acids, CAPP134 (SEQ ID NO: 10). Here, 5Y5Y or Neuro2a cultures were treated for 2 or 5 h with about 100 ng/ml or about 400 ng/ml leptin (FIG. 4a, 4b). Similarly, primary neurons from embryonic rat brain, infected with an adenovirus to direct the expression of CAPP134 (SEQ ID NO:10) also were treated according to the same regimen.

[3] = test system: primary embryonic rat neurons infected with adenovirus; assay: Aβ production by primary embryonic rat neurons infected with adenovirus (SEAP-APP); type: cell-based; details: total Aβ in conditioned media, 5 h; concentration (TOFA 200 μM, cerulenin 200 μM, etomoxir 40 μM, peptide YY (3-36) 25 μM, CNTF 25 μM, leptin 400 ng/ml); mean ± SEM; NS = non-significant
Text: as §5, §1, §2, §6

SY5Y cells [4] = assay: 125I-Aβ uptake by SY5Y cells (apoE-dependent); type: cell-based, human; details: RAP 1 μM added together with Aβ or the Aβ/apoE complex
Procedure: Preparation of ApoE and binding with ^125I-Aβ. ApoE was isolated from the conditioned media of human embryonic kidney (HEK-293) cells stably-transfected with human apoE (having the ε3 allele or the ε4 allele) cDNA (Tezapsidis et al., FASEB J. 17:1322-1324 (2003)). These preparations, while usually poor in lipid, are fully functional for uptake experiments. ApoE then was pre-incubated with ^125I-Aβ overnight at 37° C. (Aβ/ApoE: 1/50 w/w) as described (Tezapsidis et al., FASEB J. 17:1322-1324 (2003)).
Aβ-uptake by SY5Y cells. Human ^125I-Aβ (iodinated at Tyr-10, Amersham Biosciences, IM 294) uptake was measured following addition of 0.1 nM ^125I-Aβ40 (SEQ ID NO: 4) to confluent SY5Y cells (60,000 cpm/ml) in the presence or absence of 100 ng/ml or 400 ng/ml leptin also included in a 24 h pre-incubation period. ^125I-Aβ was either added alone or was previously incubated with apoε3. In controls, Receptor Associated Protein (“RAP”, 1 μM) was added together with Aβ or the Aβ/apoE complex. RAP is an antagonist of a number of lipoprotein receptors (LaDu et al., Neurochem Int. 39:427-34 (2001)). After 24 h, the media were collected and subjected to scintillation counting for γ-Iradiation (Kang et al., 2000. J Clin Invest. 106:1159-66 (2000)). The amount of radioactivity was measured in both the trichloroacetic acid (10%) TCA pellets (representing intact Aβ) and the corresponding supernatants (representing degraded Aβ). 96.5±8.2% (mean±s.e.m., n=4 experiments, triplicate determinations) of the radioactivity found in the medium could be recovered in the TCA pellet and represented intact or oligomeric Aβ (not shown), when Aβ was pre-incubated with apoE.
The amount of TCA-precipitable radioactivity in the soluble fraction of cell lysates was compared to that in the total lysates, the ratio of which was typically about 0.8 to about 0.9 (not shown), to further verify that radioactivity was reduced in the media as a reflection of Aβ uptake by the cells, rather than due to non-specific binding to the extracellular surface of membranes or oligomerization/aggregation of Aβ.
In panel (a), Aβ uptake was measured in SY5Y cells following their treatment at 0 ng/ml, 100 ng/ml or 400 ng/ml leptin. Uptake also was measured in cells previously transfected with antisense DNA for PS1 as described (Tezapsidis et al., FASEB J. 17:1322-1324(2003)) (black). Uptake is expressed as the percentage of that observed with Aβ pre-incubated with apoε3 (medium gray) in the absence of leptin (first set of columns). […] Leptin induced a dose-dependent increase in Aβ uptake with a preference for apoε3 (medium gray) over apoε4 (light gray). In panel (b), SY5Y cells were pre-treated with […] cholesterol (+Chol) or normal medium (−Chol). Then Aβ uptake was measured following its preincubation with apoε3 (ε3) or apoε4 (ε4) in the absence (black) or the presence (gray) of about 400 ng/ml leptin. Cells were more resistant to taking-up Aβ when loaded with cholesterol. […] In panel (c), SY5Y cells were transiently transfected with SREBP-1 or SREBP-2 cDNA or an empty vector (Control). Then Aβ was measured in the medium by ELISAs (Figueiredo-Pereira et al., J Neurochem. 72:1417-22 (1999)) following treatment with (+) or without (−) leptin. […] In panel (d), Aβ uptake was measured in SY5Y cells prepared as in panel (c). Uptake was performed using Aβ/apoε3 complexes.

[5] = 25 μM (equimolar concentrations), Table 1 cells
[6] = higher (150 μM) concentrations, not shown

Molecule | Aβ production / levels of Aβ in the media (in words) [1] | Neuro2a/SEAP-APP Aβ(% control) [1] | SY5Y Aβ (% control) (SY5Y cells [2]) | Neurons/SEAPP-APP Aβ (% control) [3] | Aβ production (in words) [1, 5] | Aβ production (in words) [1, 6] | Aβ uptake (SY5Y cells [4])
CCOC(=O)[C@@]1(CCCCCCOc2ccc(Cl)cc2)CO1 [Etomoxir] | increased Aβ production | 154 ± 14 % control | 142 ± 14 % control | 158 ± 14 % control | – | – | –
Peptide YY (3-36): gut-derived hormone affecting daily food intake | – | 92 ± 9, NS % control | 96 ± 7, NS % control | 98 ± 5, NS % control | neither peptide changed Aβ production in a statistically significant way | neither peptide changed Aβ production in a statistically significant way | –
methyl-β-cyclodextrin | lowering Aβ | – | – | – | – | – | –
C/C=C/C/C=C/CCC(=O)[C@H]1O[C@H]1C(N)=O [Cerulenin, cerulenin] | mimicked | 52 ± 12 % control | 65 ± 9, NS % control | 66 ± 5 % control | – | – | –
CCCCCCCCCCCCCCOc1ccc(C(=O)O)o1 [TOFA, 5-(tetradecyloxy)-2-furancarboxylic acid] | mimicked | 40 ± 15 % control | 58 ± 12 % control | 35 ± 4 % control | – | – | –
B1 | – | 95 ± 4, NS % control | 96 ± 8, NS % control | 89 ± 12, NS % control | neither peptide changed Aβ production in a statistically significant way | neither peptide changed Aβ production in a statistically significant way | –
B2 | – | – | – | – | – | – | abolished uptake
